The target in this assay is human metabotropic Glutamate 4 receptor (mGluR4) (Homo sapiens (Human), UniProt Q14833). Briefly: Assay A: in vitro testing of mGluR4 potency (glutamate-induced cAMP lowering, HTRF cAMP). The format is cell-based. The settings on record: HEK293 cells overexpressing human mGluR4; 10 uM L-glutamic acid, 1 uM forskolin; compounds of the present invention. Here is the method:
A. In Vitro Testing of mGluR4 Potency
The in vitro activity of the compounds according to the invention may be investigated as follows:
The HEK293 cell overexpressing the human metabotropic Glutamate 4 receptor are thawed at 37° C. and immediately diluted with cell culture medium. After centrifugation, the cell pellet is re-suspended in medium and then distributed from a stirred spinner flask into the wells of the assay plate. The plates are incubated for one hour at room temperature before they are incubated for 24 hours at 37° C./5% CO2. After washing the cells in the plate three times with 80 uL HBSS/HEPES buffer (10 uL buffer remained in the wells after washing), 5 uL per well of compounds diluted in HBSS/HEPES buffer containing 0.2% BSA (final concentration: 0.1%) and 1 mM IBMX (final concentration: 0.5 mM) are added to the wells of the assay plate. Thereafter 5 uL per well of L-Glutamic acid (final concentration: 10 uM), forskolin (final concentration: 1 uM) and 1 mM IBMX (final concentration: 0.5 mM) dissolved in HBSS/HEPES buffer containing 0.2% BSA (final concentration: 0.1%) are added to the assay plate (final DMSO concentration: 1%). Several wells of the assay plate are used either for the positive and the negative controls or for the cAMP standard curve. The assay plate is incubated for 30 minutes at room temperature. Then 5 ul per well of Anti-cAMP-Antibody-d2 solution and 5 ul per well of cAMP-Europium Cryptate dilution are added to all wells of the plate and the plate is incubated another 60 minutes light protected at room temperature. The emission at 615 nm and 665 nm (Excitation wavelength: 320 nm) are measured on the EnVision™ reader (Perkin Elmer). The ratio between the emission at 665 nm and 615 is calculated by the reader. The whole assay is performed in the dark or under green light.
The cAMP standard is prepared by diluting the cAMP stock solution with HBSS/Hepes buffer: 5 μl/well of the cAMP dilutions (in HBSS/Hepes buffer containing 1 mM IBMX and 0.2% BSA—final concentration: 0.5 mM IBMX and 0.1% BSA) are added to 10 ul/well HBSS/Hepes buffer plus 5 ul/well 4% DMSO in HBSS/Hepes containing 0.2% BSA (final DMSO concentration: 1%—like in the wells containing compounds) in the wells of the assay plate. The final cAMP concentrations in the assay plate are: 0, 0.17, 0.69, 2.78, 11.1, 44.5, 178, and 712 nM (two wells/cAMP concentration).
Each assay microtiter plate contained also wells with vehicle controls instead of compound as controls for L-Glutamic acid induced signal (negative control; 100% CTL; 10 uM L-Glutamic acid+1 uM forskolin+0.5 mM IBMX+1% DMSO) and wells with vehicle controls without L-Glutamic acid as controls for non-specific changes in signal (positive control; 0% CTL; 0 uM L-Glutamic acid+1 uM forskolin+0.5 mM IBMX+1% DMSO).
The analysis of the data is performed by the calculation the ratio between the emission at 665 nm and the emission at 615 nm (Em665/Em615 ratio). Thereafter the signals of the compounds are normalized using the positive and negative controls by the following formula:
PoC=100×((Signal Sample−Positive Control)/(Negative Control−Positive Control))
Background: TR-FRET usually uses a lanthanide donor and a delayed reading to cut background.
Chain of human metabotropic Glutamate 4 receptor (mGluR4) (Q14833 33-912): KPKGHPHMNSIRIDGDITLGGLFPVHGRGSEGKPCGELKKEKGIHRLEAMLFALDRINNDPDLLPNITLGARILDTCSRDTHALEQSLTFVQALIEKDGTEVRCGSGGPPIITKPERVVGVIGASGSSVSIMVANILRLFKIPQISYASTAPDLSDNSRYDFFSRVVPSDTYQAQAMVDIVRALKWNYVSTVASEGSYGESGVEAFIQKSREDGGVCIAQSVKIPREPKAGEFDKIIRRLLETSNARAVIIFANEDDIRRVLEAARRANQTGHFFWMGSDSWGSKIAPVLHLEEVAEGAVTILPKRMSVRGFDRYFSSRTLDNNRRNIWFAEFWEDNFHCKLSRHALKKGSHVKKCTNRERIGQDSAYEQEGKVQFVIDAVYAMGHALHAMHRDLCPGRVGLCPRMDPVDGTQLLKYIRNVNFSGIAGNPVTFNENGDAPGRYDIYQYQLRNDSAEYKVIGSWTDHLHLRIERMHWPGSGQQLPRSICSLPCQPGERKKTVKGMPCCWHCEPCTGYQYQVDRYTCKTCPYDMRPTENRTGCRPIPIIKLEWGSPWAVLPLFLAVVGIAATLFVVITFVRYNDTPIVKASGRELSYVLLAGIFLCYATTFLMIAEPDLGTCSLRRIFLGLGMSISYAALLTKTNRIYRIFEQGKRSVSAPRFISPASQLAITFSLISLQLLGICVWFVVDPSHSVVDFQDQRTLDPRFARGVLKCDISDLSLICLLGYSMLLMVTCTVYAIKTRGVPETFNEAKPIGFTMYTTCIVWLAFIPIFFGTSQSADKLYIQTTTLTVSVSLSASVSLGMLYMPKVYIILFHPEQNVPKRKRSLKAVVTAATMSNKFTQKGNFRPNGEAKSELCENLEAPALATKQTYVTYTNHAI
Broadly, the IC50 is the concentration at which inhibition is half-maximal. `COCCn1c([C@@H](NC(=O)c2cnc(C(F)F)cn2)[C@H]2CCOC2)nc2cc(F)ccc21` [Example 48, 5-(difluoromethyl)-N-[(S)-[5-fluoro-1-(2-methoxyethyl)-1H-1,3-benzodiazol-2-yl][(3R)-oxolaN-3-yl]methyl]pyrazine-2-carboxamide] showed an IC50 of 21 nM.

For the compound `COCCn1c([C@@H](NC(=O)c2cnc(C)cn2)C2CC2)nc2cc(OC(F)F)c(F)cc21` [Example 67, N-[(S)-cyclopropyl[5-(difluoromethoxy)-6-fluoro-1-(2-methoxyethyl)-1H-1,3-benzodiazol-2-yl]methyl]-5-methylpyrazine-2-carboxamide], the IC50 amounted to 10 nM.

On to `Cc1cnc(C(=O)N[C@H](c2nc3cc(Cl)c(F)cc3n2C)C2CC2)cn1` [Example 100, N-[(S)-(5-chloro-6-fluoro-1-methyl-1H-1,3-benzodiazol-2-yl)(cyclopropyl)methyl]-5-methylpyrazine-2-carboxamide], for which the IC50 stood at 19 nM.

For the compound `CO[C@H](C)[C@H](NC(=O)c1cnc(C)cn1)c1nc2cc(OC(F)(F)F)ccc2n1CCOC1CC1` [Example 119, N-[(1R,2R)-1-[1-(2-cyclopropoxyethyl)-5-(trifluoromethoxy)-1H-1,3-benzodiazol-2-yl]-2-methoxypropyl]-5-methylpyrazine-2-carboxamide], the IC50 is 1 nM.

`CCn1c([C@@H](NC(=O)c2cnc(C)cn2)C2CC2)nc2cc(OC(F)F)ccc21` [Example 49, N-[(S)-cyclopropyl[5-(difluoromethoxy)-1-ethyl-1H-1,3-benzodiazol-2-yl]methyl]-5-methylpyrazine-2-carboxamide]: the IC50 came out at 7 nM.

`CCn1c([C@@H](NC(=O)c2cnc(C)cn2)C(C)C)nc2cc(F)ccc21` [Example 17, N-[(1S)-1-(1-ethyl-5-fluoro-1H-1,3-benzodiazol-2-yl)-2-methylpropyl]-5-methylpyrazine-2-carboxamide] came in with an IC50 of 4 nM.

`CCn1c(C(NC(=O)c2cnc(C)cn2)C2CCOC2)nc2cc(OC(F)(F)F)ccc21` (single isomer, unassigned) [Example 97-1, N-{[1-ethyl-5-(trifluoromethoxy)-1H-1,3-benzodiazol-2-yl](oxolan-3-yl)methyl}-5-methylpyrazine-2-carboxamide] had an IC50 of 12 nM.

`CO[C@H](C)[C@H](NC(=O)c1cnc(C)cn1)c1nc2cc(F)c(F)cc2n1C` [Example 85, N-[(1R,2R)-1-(5,6-difluoro-1-methyl-1H-1,3-benzodiazol-2-yl)-2-methoxypropyl]-5-methylpyrazine-2-carboxamide] showed an IC50 of 48 nM.

Turning to `COCCn1c([C@@H](NC(=O)c2cnc(C)cn2)[C@@H](C)OC(F)F)nc2cc(OC(F)F)ccc21` [Example 79, N-[(1R,2R)-2-(difluoromethoxy)-1-[5-(difluoromethoxy)-1-(2-methoxyethyl)-1H-1,3-benzodiazol-2-yl]propyl]-5-methylpyrazine-2-carboxamide], the IC50 is 19 nM.

“5-(difluoromethyl)-N-[(1S)-1-(1-ethyl-5-fluoro-1H-1,3-benzodiazol-2-yl)-2-methylpropyl]pyrazine-2-carboxamide [Example 59]” had an IC50 of 4 nM.

`COCCn1c([C@@H](NC(=O)c2cnc(C)cn2)C2CC2)nc2cc(C(F)(F)F)ccc21` [Example 35, N-[(S)-cyclopropyl[1-(2-methoxyethyl)-5-(trifluoromethyl)-1H-1,3-benzodiazol-2-yl]methyl]-5-methylpyrazine-2-carboxamide] yielded an IC50 of 2 nM.

As to `CO[C@H](C)[C@H](NC(=O)c1cnc(C)cn1)c1nc2c(C)c(Br)ccc2n1C` [Example 88, N-[(1R,2R)-1-(5-bromo-1,4-dimethyl-1H-1,3-benzodiazol-2-yl)-2-methoxypropyl]-5-methylpyrazine-2-carboxamide], half-maximal inhibition (IC50) required 3 nM.

As to `CCn1c([C@@H](NC(=O)c2cnc(C)cn2)[C@]2(O)CCOC2)nc2ccc(C(F)(F)F)cc21` [Example 155, N-[(R)-[1-ethyl-6-(trifluoromethyl)-1H-1,3-benzodiazol-2-yl][(3R)-3-hydroxyoxolan-3-yl]methyl]-5-methylpyrazine-2-carboxamide], 63 nM corresponded to half-maximal inhibition (IC50).

`Cc1cnc(C(=O)N[C@H](c2nc3cc(Br)ccc3n2C)C2CC2)cn1` [Example 34, N-[(S)-(5-bromo-1-methyl-1H-1,3-benzodiazol-2-yl)(cyclopropyl)methyl]-5-methylpyrazine-2-carboxamide] gave an IC50 of 5 nM.

`CCn1c([C@@H](NC(=O)c2cnc(C)cn2)[C@]2(O)CCCOC2)nc2ccc(C(F)(F)F)cc21` [Example 152, N-[(R)-[1-ethyl-6-(trifluoromethyl)-1H-1,3-benzodiazol-2-yl][(3R)-3-hydroxyoxan-3-yl]methyl]-5-methylpyrazine-2-carboxamide] gave a concentration for half-maximal inhibition (IC50) of 14 nM.

Compound `CO[C@H](C)[C@H](NC(=O)c1cnc(C)cn1)c1nc2cc(OC(F)(F)F)ccc2n1CCOC(C)C` [Example 41, N-[(1R,2R)-2-methoxy-1-{1-[2-(propan-2-yloxy)ethyl]-5-(trifluoromethoxy)-1H-1,3-benzodiazol-2-yl}propyl]-5-methylpyrazine-2-carboxamide] had an IC50 of 2 nM.

Take `O=C(N[C@@H](CC1CC1)c1nc2cc(Cl)ccc2n1C1CC1)c1cnc(C(F)F)cn1` [Example 117, N-[(1S)-1-(5-chloro-1-cyclopropyl-1H-1,3-benzodiazol-2-yl)-2-cyclopropylethyl]-5-(difluoromethyl)pyrazine-2-carboaxamide]: the IC50 came out at 8 nM.

Regarding `COCCn1c(C(NC(=O)c2cnc(C)cn2)C2CCOC2)nc2cc(C(F)(F)F)ccc21` (single isomer, unassigned) [Example 87-1, N-{[1-(2-methoxyethyl)-5-(trifluoromethyl)-1H-1,3-benzodiazol-2-yl](oxolan-3-yl)methyl}-5-methylpyrazine-2-carboxamide], the IC50 came to 21 nM.

In turn, `COCCn1c([C@@H](NC(=O)c2cnc(C)cn2)[C@H]2CCCO2)nc2cc(C(F)(F)F)ccc21` (single isomer, unassigned) [Example 19] had a 50% inhibitory concentration (IC50) of 3 nM.

In turn, `CO[C@H](C)[C@H](NC(=O)c1cnc(C)cn1)c1nc2cc(OC(F)(F)F)ccc2n1CCOC1CCC1` [Example 120, N-[(1R,2R)-1-[1-(2-cyclobutoxyethyl)-5-(trifluoromethoxy)-1H-1,3-benzodiazol-2-yl]-2-methoxypropyl]-5-methylpyrazine-2-carboxamide] displayed an IC50 of 1 nM.

`Cc1cnc(C(=O)N[C@H](c2nc3cc(OC(F)(F)F)ccc3n2C)C2CC2)cn1` [Example 74, N-[(S)-cyclopropyl[1-methyl-5-(trifluoromethoxy)-1H-1,3-benzodiazol-2-yl]methyl]-5-methylpyrazine-2-carboxamide] registered an IC50 of 6 nM.

As for `CCn1c([C@@H](NC(=O)c2cnc(C)cn2)C2CC(F)(F)C2)nc2cc(F)ccc21` [Example 127, N-[(S)-(3,3-difluorocyclobutyl)(1-ethyl-5-fluoro-1H-1,3-benzodiazol-2-yl)methyl]-5-methylpyrazine-2-carboxamide], the IC50 worked out at 8 nM.

On to `Cc1cnc(C(=O)N[C@@H](CC2CC2)c2nc3cc(Cl)ccc3n2C2CC2)cn1` [Example 92, N-[(1S)-1-(5-chloro-1-cyclopropyl-1H-1,3-benzodiazol-2-yl)-2-cyclopropylethyl]-5-methylpyrazine-2-carboxamide], for which the IC50 is 18 nM.

`Cn1c([C@@H](NC(=O)c2cnc(C(F)F)cn2)[C@H]2CCCO2)nc2cc(OC(F)(F)F)ccc21` [Example 113, 5-(difluoromethyl)-N-[(R)-[1-methyl-5-(trifluoromethoxy)-1H-1,3-benzodiazol-2-yl][(2R)-oxolan-2-yl]methyl]pyrazine-2-carboxamide] showed a concentration for half-maximal inhibition (IC50) of 17 nM.

Compound `CCn1c([C@@H](NC(=O)c2cnc(C)cn2)C2CC2)nc2cc(OC(F)(F)F)ccc21` [Example 46, N-[(S)-cyclopropyl[1-ethyl-5-(trifluoromethoxy)-1H-1,3-benzodiazol-2-yl]methyl]-5-methylpyrazine-2-carboxamide] showed an IC50 of 2 nM.

The values above are taken from patent US20240182453A1, “NOVEL SUBSTITUTED PYRAZINE-CARBOXAMIDE DERIVATIVES” (Boehringer Ingelheim International GmbH, priority 2022, published 2024).
